pIC50: −log10 of the molar value. Read-outs that look alike come from different tables or passages of the source.
How the values were obtained:
Assay type in all cases: biochemical
[1] = biological target: MAP4K4 (Homo sapiens, UniProt O95819); experiment: AlphaScreen kinase assay, MAP4K4; conditions: read-out: IC50, activity toward kinase MAP4K4
[2] = biological target: T1, Fms (Homo sapiens, UniProt P07333); experiment: AlphaScreen kinase assay, Fms; conditions: read-out: IC50, activity toward kinase Fms
T1 construct: purchased Upstate Biotechnology

[3] = biological target: T2, Fak (Homo sapiens, UniProt Q05397); experiment: AlphaScreen kinase assay, Fak; conditions: read-out: IC50, activity toward kinase Fak
T2 construct: P1358.pFastBacHtb FAK S411-Q686-X; His6 with pFastBacHTb leader (TEV site) (N); made in house; host or cells: Sf9 (baculovirus)

[4] = biological target: T3, Kit (Homo sapiens, UniProt P10721); experiment: AlphaScreen kinase assay, Kit; conditions: read-out: IC50, activity toward kinase Kit
T3 construct: P1332.N6 BI PTP KIT M552-K948-X COD; His6 (N); made in house; host or cells: E. coli (PTP1B co-expressed)

[5] = biological target: T4, Jnk1 (Homo sapiens, UniProt P45983); experiment: AlphaScreen kinase assay, Jnk1; conditions: read-out: IC50, activity toward kinase Jnk1
T4 construct: purchased Upstate Biotechnology

[6] = biological target: T5, Src (Homo sapiens, UniProt P12931); experiment: AlphaScreen kinase assay, Src; conditions: read-out: IC50, activity toward kinase Src
T5 construct: P1144. pET-N6 BI-PTP SRC V86-L536-X; made in house

[7] = biological target: T6, B-Raf (Homo sapiens, UniProt P15056); experiment: AlphaScreen kinase assay, B-Raf; conditions: read-out: IC50, activity toward kinase B-Raf
T6 construct: purchased Upstate Biotechnology

[8] = biological target: T7, Flt1 (Homo sapiens, UniProt P17948); experiment: AlphaScreen kinase assay, Flt1; conditions: read-out: IC50, activity toward kinase Flt1
T7 construct: P1826.pETN6 BI-PTP FLT1 M799-D1165-X WT; His6 (N); made in house; host or cells: E. coli (PTP1B co-expressed)
T7 sequence (P17948 with tags, fused parts or gaps): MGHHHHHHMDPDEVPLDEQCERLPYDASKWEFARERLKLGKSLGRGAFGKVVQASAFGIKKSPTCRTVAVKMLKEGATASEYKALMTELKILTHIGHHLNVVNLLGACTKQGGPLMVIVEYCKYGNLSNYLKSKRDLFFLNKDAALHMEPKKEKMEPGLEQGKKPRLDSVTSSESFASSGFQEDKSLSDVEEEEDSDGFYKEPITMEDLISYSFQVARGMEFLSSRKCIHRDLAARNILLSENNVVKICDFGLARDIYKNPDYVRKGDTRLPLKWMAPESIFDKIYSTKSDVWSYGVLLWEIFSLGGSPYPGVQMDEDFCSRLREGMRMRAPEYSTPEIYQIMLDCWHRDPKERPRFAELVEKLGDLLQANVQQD

[9] = biological target: T8, B-Raf V600E (Homo sapiens, UniProt P15056, V600E); experiment: AlphaScreen kinase assay, B-Raf V600E; conditions: read-out: IC50, activity toward kinase B-Raf V600E
T8 construct: P4254. pFastBacBD-CDC37 BRAF D437-K722-X, V600E; His6 with pFastBac HT leader (TEV site) (N); made in house; host or cells: Sf9 (baculovirus; chaperone CDC37 co-expressed)

[10] = biological target: T9, FGFR1 (Homo sapiens, UniProt P11362, C488A/C584S); experiment: AlphaScreen kinase assay, FGFR1
T9 construct: P1351.pET N6 BI-PTP FGFR A458-E765-X C488A, C584S; made in house; host or cells: E. coli (PTP1B co-expressed)

[11] = biological target: T10, c-Raf-1 (Homo sapiens, UniProt P04049); experiment: AlphaScreen kinase assay, c-Raf-1; conditions: read-out: IC50, activity toward kinase c-Raf-1
T10 construct: purchased Upstate Biotechnology

[12] = biological target: T11, Jnk3 (Homo sapiens, UniProt P53779); experiment: AlphaScreen kinase assay, Jnk3; conditions: read-out: IC50, activity toward kinase Jnk3
T11 construct: purchased Upstate Biotechnology

[13] = biological target: T12, Pyk2 (Homo sapiens, UniProt Q14289); experiment: AlphaScreen kinase assay, Pyk2; conditions: read-out: IC50, activity toward kinase Pyk2
T12 construct: purchased Upstate Biotechnology

[14] = biological target: T13, Kdr (Homo sapiens, UniProt P35968); experiment: Z'-Lyte FRET kinase assay (Invitrogen), Kdr; conditions: read-out: IC50, activity toward kinase Kdr
T13 construct: purchased Invitrogen (assay run by Invitrogen)

[15] = biological target: T14, Stk6 (Homo sapiens, UniProt O14965); experiment: Z'-Lyte FRET kinase assay (Invitrogen), Stk6; conditions: read-out: IC50, activity toward kinase Stk6
T14 construct: purchased Invitrogen (Carlsbad, Calif.), screening service
T14 sequence (O14965 1-403): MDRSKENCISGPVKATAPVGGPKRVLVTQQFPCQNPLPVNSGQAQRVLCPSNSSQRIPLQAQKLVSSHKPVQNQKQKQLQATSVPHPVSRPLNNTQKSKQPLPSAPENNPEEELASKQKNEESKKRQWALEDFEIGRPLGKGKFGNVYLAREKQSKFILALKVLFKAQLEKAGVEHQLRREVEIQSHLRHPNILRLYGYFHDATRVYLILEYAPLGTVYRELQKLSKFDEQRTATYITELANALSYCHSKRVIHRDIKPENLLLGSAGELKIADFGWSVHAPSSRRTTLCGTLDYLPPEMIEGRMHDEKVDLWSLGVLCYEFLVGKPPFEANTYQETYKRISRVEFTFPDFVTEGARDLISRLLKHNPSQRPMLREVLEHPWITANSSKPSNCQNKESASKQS

[16] = biological target: T15, Yes (Homo sapiens, UniProt P07947); experiment: Z'-Lyte FRET kinase assay (Invitrogen), Yes; conditions: read-out: IC50, activity toward kinase Yes
T15 construct: purchased Invitrogen (Carlsbad, Calif.), screening service
Source text: The effect of potential modulators of kinase activity can be measured in a variety of different assays known in the art. For example, direct radiometric, indirect FRET or AlphaScreen assays may be used to assess the level of phosphorylation of a substrate in the presence of test compounds in order to determine the inhibitory affect of the compound on the kinase. Invitrogen (Carlsbad, Calif.) uses a FRET based assay for Btk, EGFR, EphB2, Flt3, lrak4, Kdr, MAP2K1, MAPKAPK2, PDGFRB, PKC theta, Stk6 and Yes. For these assays, compounds of the invention were screened by Invitrogen using Z′-Lyte™ kinase assay.
Briefly, the Invitrogen kinase assay involves use of a specific peptide substrate optimized for each kinase, containing a fluorophore at each end that make up the FRET pair. The peptide sensitivity to proteolytic cleavage depends on phosphorylation of the peptide. Non-phosphorylated peptide is cleaved by a protease while peptide phosphorylated by the kinase is not cleaved. Cleavage of the peptide disrupts the FRET between the donor (coumarin) and acceptor (fluorescein) fluorophores, resulting in an increase in the ratio of donor emission to acceptor emission. The emission ratio of coumarin to fluorescein is used to assess the reaction progress. The extent of phosphorylation is determined from the emission ratio, which is low when the kinase is active (phosphorylated peptide is not cleaved, FRET pair connected) or higher for inhibited kinase (non-phosphorylated peptide is cleaved, FRET pair separated). Thus, the assay involves a kinase reaction in the presence of varying concentrations of a given compound, a development reaction with site specific protease, and detection of the fluorescent emission ratio of coumarin and fluorscein. […] Reaction conditions for each kinase are determined to provide optimal reaction times, incubation temperature, kinase and ATP concentrations. Test samples are made up in 1× kinase buffer (50 mM HEPES pH 7.5, 50 mM MgCl2, 5 mM EGTA, 0.05% BRIJ-35) and compound at desired concentration prepared in DMSO such that the final DMSO is 1%. […] Typically, assay plates are prepared to 10 μl final volume per sample, adding 2.5 μl of compound at 4× the desired concentration in 4% DMSO (serial dilution of compound provides concentration curve), 5 μl of the desired kinase mixed with Z′-LYTE™ peptide substrate (2× in 2× kinase buffer, final peptide at 2 μM), and 2.5 μl of 4×ATP solution. All kinase except for MAP2K1 were at 10 μM ATP in the kinase reaction, while MAP2K1 was at 100 μM. Samples are mixed and the kinase reaction is incubated 1 hour at room temperature, after which 5 μl of development solution is added and mixed. After incubation for another 1 hour at room temperature, 5 μl of stop reagent is added to each sample and mixed. The fluorescence signals are measured to determine the emission ratio.

[17] = biological target: T16, Ret (Homo sapiens, UniProt P07949); experiment: AlphaScreen kinase assay, Ret; conditions: read-out: IC50, activity toward kinase Ret
T16 construct: P1378.pET-SF BI-PTP RET H661-R1012 HIS; made in house
T16 sequence (P07949 with tags, fused parts or gaps): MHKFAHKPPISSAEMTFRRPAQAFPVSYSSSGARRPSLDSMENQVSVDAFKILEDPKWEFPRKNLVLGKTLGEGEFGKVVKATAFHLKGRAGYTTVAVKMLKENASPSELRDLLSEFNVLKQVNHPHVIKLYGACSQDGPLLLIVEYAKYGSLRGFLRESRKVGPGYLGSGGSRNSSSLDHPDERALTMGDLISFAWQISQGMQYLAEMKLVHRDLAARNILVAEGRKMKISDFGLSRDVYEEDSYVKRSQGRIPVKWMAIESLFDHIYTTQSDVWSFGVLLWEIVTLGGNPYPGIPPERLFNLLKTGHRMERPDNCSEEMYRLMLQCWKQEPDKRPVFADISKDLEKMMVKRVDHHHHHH

[18] = biological target: T17, Jnk2 (Homo sapiens, UniProt P45984); experiment: AlphaScreen kinase assay, Jnk2; conditions: read-out: IC50, activity toward kinase Jnk2
T17 construct: purchased Roche Protein Expression Group (Indianapolis, IN)
Procedure, shortened: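 Here, phosphorylation of a biotin-tagged peptide was sensed by proximity of streptavidin donor and antibody-bearing acceptor beads. Test compounds covered 8 concentrations by 1:3 serial dilution of 20 mM DMSO stocks.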

[19] = read-out: IC50, activity toward kinase FGFR

T6 sequence (P15056 whole entry): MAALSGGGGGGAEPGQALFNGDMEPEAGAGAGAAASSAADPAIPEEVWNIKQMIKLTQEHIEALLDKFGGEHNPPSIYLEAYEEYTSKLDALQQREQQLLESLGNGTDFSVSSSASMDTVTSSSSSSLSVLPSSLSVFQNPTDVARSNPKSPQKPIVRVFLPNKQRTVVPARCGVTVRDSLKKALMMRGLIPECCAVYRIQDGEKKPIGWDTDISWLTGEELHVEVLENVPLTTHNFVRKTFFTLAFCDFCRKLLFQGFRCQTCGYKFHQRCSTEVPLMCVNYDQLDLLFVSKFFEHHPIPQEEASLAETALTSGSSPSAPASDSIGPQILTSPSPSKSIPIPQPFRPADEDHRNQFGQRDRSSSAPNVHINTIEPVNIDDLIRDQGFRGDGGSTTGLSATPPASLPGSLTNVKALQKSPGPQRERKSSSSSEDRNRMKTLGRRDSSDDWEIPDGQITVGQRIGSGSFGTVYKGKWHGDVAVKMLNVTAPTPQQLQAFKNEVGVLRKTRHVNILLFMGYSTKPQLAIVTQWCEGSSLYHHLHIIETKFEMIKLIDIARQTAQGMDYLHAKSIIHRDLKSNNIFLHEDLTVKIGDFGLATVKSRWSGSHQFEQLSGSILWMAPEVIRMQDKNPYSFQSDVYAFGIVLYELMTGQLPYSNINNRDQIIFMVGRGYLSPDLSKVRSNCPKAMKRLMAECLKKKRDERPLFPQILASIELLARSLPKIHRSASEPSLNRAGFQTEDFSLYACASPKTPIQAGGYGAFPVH
T5 sequence (P12931 with tags, fused parts or gaps): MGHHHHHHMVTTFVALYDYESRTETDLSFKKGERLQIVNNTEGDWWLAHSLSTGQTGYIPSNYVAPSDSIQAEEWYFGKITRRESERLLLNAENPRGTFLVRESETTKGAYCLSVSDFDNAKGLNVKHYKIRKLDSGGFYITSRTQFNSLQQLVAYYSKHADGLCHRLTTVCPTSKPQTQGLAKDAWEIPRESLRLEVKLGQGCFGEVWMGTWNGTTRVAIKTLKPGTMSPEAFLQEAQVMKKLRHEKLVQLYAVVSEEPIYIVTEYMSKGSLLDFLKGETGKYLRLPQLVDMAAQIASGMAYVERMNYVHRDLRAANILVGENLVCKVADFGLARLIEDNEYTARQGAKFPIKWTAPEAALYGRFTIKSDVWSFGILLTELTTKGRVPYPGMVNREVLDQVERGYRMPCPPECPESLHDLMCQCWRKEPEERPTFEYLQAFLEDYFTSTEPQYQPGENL
T2 sequence (Q05397 411-686): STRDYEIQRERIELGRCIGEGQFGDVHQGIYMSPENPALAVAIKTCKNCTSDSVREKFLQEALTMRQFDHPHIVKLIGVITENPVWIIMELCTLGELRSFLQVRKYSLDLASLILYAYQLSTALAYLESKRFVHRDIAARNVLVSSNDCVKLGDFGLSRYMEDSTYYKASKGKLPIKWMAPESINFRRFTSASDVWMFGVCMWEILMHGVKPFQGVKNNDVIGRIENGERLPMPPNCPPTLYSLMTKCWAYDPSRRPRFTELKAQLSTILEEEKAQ
T4 sequence (P45983 whole entry): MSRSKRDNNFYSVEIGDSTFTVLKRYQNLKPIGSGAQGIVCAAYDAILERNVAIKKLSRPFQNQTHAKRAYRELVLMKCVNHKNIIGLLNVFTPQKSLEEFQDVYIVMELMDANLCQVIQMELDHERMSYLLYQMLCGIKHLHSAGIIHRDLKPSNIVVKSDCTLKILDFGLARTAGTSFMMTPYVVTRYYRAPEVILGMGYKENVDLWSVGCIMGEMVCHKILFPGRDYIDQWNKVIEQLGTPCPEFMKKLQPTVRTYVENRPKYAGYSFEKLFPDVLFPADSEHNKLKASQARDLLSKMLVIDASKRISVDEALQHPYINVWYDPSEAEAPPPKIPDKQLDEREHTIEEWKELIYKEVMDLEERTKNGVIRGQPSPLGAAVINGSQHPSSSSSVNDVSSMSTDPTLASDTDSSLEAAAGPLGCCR
MAP4K4, sequence (O95819 whole entry): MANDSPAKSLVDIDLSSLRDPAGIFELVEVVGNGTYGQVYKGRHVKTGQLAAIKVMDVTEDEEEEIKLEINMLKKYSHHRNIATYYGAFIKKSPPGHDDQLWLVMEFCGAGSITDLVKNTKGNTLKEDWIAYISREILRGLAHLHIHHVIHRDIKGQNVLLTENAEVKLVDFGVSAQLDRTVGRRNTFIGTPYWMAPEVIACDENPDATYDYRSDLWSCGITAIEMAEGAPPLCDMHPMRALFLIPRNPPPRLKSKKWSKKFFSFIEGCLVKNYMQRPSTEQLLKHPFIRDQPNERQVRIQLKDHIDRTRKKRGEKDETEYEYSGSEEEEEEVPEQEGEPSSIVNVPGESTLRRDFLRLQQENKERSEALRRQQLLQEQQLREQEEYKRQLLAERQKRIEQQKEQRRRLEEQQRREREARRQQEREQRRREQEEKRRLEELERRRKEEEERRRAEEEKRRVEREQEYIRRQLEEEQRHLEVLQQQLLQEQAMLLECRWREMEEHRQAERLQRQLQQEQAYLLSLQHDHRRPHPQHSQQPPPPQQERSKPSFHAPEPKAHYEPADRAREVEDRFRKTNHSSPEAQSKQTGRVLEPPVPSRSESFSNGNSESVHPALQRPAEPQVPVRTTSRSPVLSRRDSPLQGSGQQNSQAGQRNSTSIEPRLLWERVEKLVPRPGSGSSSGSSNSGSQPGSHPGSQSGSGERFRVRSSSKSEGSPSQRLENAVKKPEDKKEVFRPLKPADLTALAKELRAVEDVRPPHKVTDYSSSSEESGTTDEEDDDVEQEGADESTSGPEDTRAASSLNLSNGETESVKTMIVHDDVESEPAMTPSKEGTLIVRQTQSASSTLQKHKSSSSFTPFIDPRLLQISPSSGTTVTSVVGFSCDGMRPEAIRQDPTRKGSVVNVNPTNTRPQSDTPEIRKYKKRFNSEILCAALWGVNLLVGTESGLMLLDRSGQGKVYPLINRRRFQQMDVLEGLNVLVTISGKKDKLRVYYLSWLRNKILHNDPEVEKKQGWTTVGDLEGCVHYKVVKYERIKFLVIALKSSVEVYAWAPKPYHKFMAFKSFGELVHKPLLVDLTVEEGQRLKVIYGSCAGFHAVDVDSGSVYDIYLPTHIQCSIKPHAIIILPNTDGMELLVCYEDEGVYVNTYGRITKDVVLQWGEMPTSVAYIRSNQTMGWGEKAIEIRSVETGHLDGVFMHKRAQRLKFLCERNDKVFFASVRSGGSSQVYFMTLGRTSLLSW
T9 sequence (P11362 458-765 C488A/C584S): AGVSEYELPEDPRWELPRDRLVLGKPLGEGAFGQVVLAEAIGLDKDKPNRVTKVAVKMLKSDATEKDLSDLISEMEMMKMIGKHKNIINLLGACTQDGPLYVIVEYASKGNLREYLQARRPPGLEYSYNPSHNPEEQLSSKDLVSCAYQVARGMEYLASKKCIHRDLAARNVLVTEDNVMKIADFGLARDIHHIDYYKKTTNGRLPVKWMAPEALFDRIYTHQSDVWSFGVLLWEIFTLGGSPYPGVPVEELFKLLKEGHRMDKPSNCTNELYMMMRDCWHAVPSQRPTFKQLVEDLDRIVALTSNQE
T10 sequence (P04049 whole entry): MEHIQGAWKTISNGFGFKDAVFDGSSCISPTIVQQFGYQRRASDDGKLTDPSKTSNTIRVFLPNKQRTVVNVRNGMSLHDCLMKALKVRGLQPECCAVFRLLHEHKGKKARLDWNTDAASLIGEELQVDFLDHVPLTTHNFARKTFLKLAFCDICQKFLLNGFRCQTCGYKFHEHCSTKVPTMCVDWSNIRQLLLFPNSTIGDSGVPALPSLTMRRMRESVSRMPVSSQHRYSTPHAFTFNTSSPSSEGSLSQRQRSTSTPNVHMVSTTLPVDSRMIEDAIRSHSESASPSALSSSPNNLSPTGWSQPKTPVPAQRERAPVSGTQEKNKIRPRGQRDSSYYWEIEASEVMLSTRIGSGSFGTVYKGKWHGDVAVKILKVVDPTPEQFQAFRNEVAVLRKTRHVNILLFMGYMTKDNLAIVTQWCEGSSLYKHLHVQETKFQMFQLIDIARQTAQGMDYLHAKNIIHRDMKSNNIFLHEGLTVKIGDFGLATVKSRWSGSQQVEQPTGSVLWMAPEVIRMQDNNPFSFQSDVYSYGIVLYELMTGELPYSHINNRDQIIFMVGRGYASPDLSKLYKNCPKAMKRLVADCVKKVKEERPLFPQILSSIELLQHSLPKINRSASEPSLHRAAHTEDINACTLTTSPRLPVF
T11 sequence (P53779 whole entry): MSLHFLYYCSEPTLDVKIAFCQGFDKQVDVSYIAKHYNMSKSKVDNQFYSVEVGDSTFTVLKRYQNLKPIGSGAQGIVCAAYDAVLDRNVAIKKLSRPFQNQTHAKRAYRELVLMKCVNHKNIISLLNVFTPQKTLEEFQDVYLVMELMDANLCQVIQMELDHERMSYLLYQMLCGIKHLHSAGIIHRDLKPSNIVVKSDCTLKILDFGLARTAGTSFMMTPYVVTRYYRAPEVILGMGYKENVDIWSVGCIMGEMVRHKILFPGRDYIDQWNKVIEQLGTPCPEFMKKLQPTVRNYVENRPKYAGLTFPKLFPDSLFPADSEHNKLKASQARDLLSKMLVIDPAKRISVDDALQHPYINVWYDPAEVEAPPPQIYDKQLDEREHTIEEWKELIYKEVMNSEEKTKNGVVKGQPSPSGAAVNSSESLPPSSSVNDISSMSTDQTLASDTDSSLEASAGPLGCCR
T8 sequence (P15056 with tags, fused parts or gaps V600E): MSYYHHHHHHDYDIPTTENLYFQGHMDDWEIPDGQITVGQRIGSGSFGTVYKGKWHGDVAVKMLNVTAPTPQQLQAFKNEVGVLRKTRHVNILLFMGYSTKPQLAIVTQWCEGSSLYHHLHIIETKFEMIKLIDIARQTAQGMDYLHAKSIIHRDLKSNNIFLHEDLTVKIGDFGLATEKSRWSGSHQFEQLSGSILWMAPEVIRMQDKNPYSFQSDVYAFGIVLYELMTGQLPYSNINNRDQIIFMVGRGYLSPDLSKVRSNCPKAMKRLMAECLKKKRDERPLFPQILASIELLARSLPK

Row | pIC50 [1] | pIC50 [2] | pIC50 [3] | pIC50 [4] | pIC50 [5] | pIC50 [6] | pIC50 [7] | pIC50 [8] | pIC50 [9] | pIC50 [10, 19] | pIC50 [11] | pIC50 [12] | pIC50 [13] | pIC50 [14] | pIC50 [15] | pIC50 [16] | pIC50 [17] | pIC50 [18] | SMILES | pIC50 [10]
1 | ≥ 5.00 | ≥ 5.00 | ≥ 5.00 | ≥ 5.00 | ≥ 5.00 | ≥ 5.00 | ≥ 5.00 | ≥ 5.00 | ≥ 5.00 | ≥ 5.00 | ≥ 5.00 | ≥ 5.00 | – | – | – | – | – | – | CCC(C)NC(=O)Nc1ccc(F)c(C(=O)c2c[nH]c3ncc(-c4cccnc4)cc23)c1F (stereo not shown) [Compound P-1289, 1-sec-Butyl-3-[2,4-difluoro-3-(5-pyridin-3-yl-1H-pyrrolo[2,3-b]pyridine-3-carbonyl)-phenyl]-urea] | –
2 | ≥ 5.00 | – | – | – | – | – | – | – | – | – | – | – | – | ≥ 5.00 | ≥ 5.00 | ≥ 5.00 | – | – | O=C(c1ccc(NCC2CC2)nc1)c1c[nH]c2ncccc12 [Compound P-0202] | –
3 | ≥ 5.00 | – | – | – | ≥ 5.00 | – | ≥ 5.00 | – | ≥ 5.00 | ≥ 5.00 | ≥ 5.00 | ≥ 5.00 | – | – | – | – | ≥ 5.00 | ≥ 5.00 | CS(=O)(=O)Nc1ccc(Cl)c(C(=O)c2c[nH]c3ncc(-c4cccnc4)cc23)c1F [Compound P-0734, N-[4-Chloro-2-fluoro-3-(5-pyridin-3-yl-1H-pyrrolo[2,3-b]pyridine-3-carbonyl)-phenyl]-methanesulfonamide] | –
4 | ≥ 5.00 | ≥ 5.00 | ≥ 5.00 | ≥ 5.00 | ≥ 5.00 | ≥ 5.00 | ≥ 5.00 | – | ≥ 5.00 | ≥ 5.00 | ≥ 5.00 | ≥ 5.00 | – | – | – | – | – | ≥ 5.00 | CCCS(=O)(=O)Nc1ccc(F)c(C(=O)c2c[nH]c3ncc(OCCOC)cc23)c1F [Compound P-1253, Propane-1-sulfonic acid {2,4-difluoro-3-[5-(2-methoxy-ethoxy)-1H-pyrrolo[2,3-b]pyridine-3-carbonyl]-phenyl}-amide] | –
5 | ≥ 5.00 | ≥ 5.00 | ≥ 5.00 | ≥ 5.00 | ≥ 5.00 | ≥ 5.00 | ≥ 5.00 | – | ≥ 5.00 | ≥ 5.00 | ≥ 5.00 | ≥ 5.00 | ≥ 5.00 | – | – | – | – | – | CC(C)S(=O)(=O)Nc1ccc(F)c(Cc2c[nH]c3ncc(-c4cccnc4)cc23)c1F [Compound P-0851] | –
6 | ≥ 5.00 | ≥ 5.00 | – | ≥ 5.00 | – | – | – | ≥ 5.00 | ≥ 5.00 | ≥ 5.00 | – | – | ≥ 5.00 | ≥ 5.00 | ≥ 5.00 | – | – | – | OCCOc1cccc(Cc2c[nH]c3ncc(-c4ccsc4)cc23)c1 [Compound P-0287] | –

Row | SMILES | pIC50 [1] | pIC50 [2] | pIC50 [3] | pIC50 [4] | pIC50 [5] | pIC50 [6] | pIC50 [7] | pIC50 [8] | pIC50 [9] | pIC50 [10, 19] | pIC50 [11] | pIC50 [12] | pIC50 [13] | pIC50 [14] | pIC50 [15] | pIC50 [16] | pIC50 [17] | pIC50 [18] | pIC50 [10]
7 | CCCS(=O)(=O)Nc1ccc(Cl)c(C(=O)c2c[nH]c3ncc(-c4cccnc4)cc23)c1F [Compound P-0753, Propane-1-sulfonic acid [4-chloro-2-fluoro-3-(5-pyridin-3-yl-1H-pyrrolo[2,3-b]pyridine-3-carbonyl)-phenyl]-amide] | ≥ 5.00 | ≥ 5.00 | – | ≥ 5.00 | ≥ 5.00 | ≥ 5.00 | – | – | – | – | ≥ 5.00 | ≥ 5.00 | ≥ 5.00 | – | – | – | – | – | ≥ 5.00

— US8415469B2, “Compounds and methods for kinase modulation, and indications therefor” (Plexxikon Inc., priority 2005, dated 2013)
